Measured values as given in US9458187B2, “Methods for treatment of inflammatory conditions using S-[4-(3-fleuro-3-methylbutyryloxy)but-2-ynyl]6α, 9α-difluoro-17α-(furan-2-yl) carbonyloxy-11β-hydroxy-16α-methyl-3-oxoandrosta-1,4-diene-17β-carbothioate” (Sun Pharma Advanced Research Company Limited, priority 2013, dated 2016).

What was measured:
[1] = tested on: liver glycogen deposition; assay: Liver glycogen deposition; format: in vivo, Male Sprague Dawley rats; conditions: 3 mg/kg intratracheal, 2 doses 24 hrs apart, adrenalectomized rats
Experimental: Male Sprague Dawley rats, weighing 190-220 g were bilaterally adrenalectomized and maintained on 0.9% saline solution throughout the experiment. On day 5th and 6th of adrenalectomy, animals were made into different groups, test compounds prepared in cold saline (sonicated for 30 min) were instilled intratracheally 2 doses @3 mg/kg, 24 hrs apart. At 15 hrs after the last treatment, animals were sacrificed and livers were excised and weighed. The glycogen content of the livers was determined by anthrone method. Briefly, a weighed quantity of liver tissue was homogenized with 5% trichloroacetic acid, supernatant mixed with ethanol and kept overnight for precipitation. The glycogen thus extracted was estimated as glucose generated after acid hydrolysis by addition of anthrone reagent at 620 nm. Glycogen content was expressed as mg/100 g liver.

[2] = tested on: liver glycogen deposition; assay: Liver glycogen deposition; format: in vivo, Male Sprague Dawley rats; conditions: 3 mg/kg intratracheal, 2 doses 24 hrs apart, adrenalectomized rats; remark: listed apart in the source
[3] = Sephadex-induced lung edema; format: in vivo, SD rats; conditions: Sprague-Dawley, rat, thymus, other: intratracheal; i.t., 24 hrs and 2 hrs prior to Sephadex; read-out: ED50 Thymus involution
Experimental: (§1) Sephadex® G-200 was prepared in sterile saline (10 mg/ml) and allowed to swell for at least 3 days at room temperature. Test compounds were administered intratracheally at 24 hrs and 2 hrs prior to intratracheal administration of Sephadex® (5 mg/kg) under light ether anesthesia. Vehicle control animals were administered vehicle instead of Sephadex®. At 24 hr after Sephadex® instillation, lung and thymus were excised from individual animals and weighed. Wet weights of lungs and thymus were corrected for 100 g of initial body weight. The percentage increase in lung weight caused by Sephadex® and its inhibitions by the compounds, were calculated. The percentage inhibitions of thymus compared to vehicle control group were also calculated

[4] = tested on: croton oil ear edema; assay: Croton oil ear edema; format: in vivo, Mice (male, CD-1); conditions: for Inhibition of ear edema (%): 1.6 μg, applied to ear 2 hrs before croton oil
Experimental: Mice (male, CD-1) were made into different groups. A method similar to one reported in the literature was used. Test compounds were dissolved in pyridine-water-acetone (4:2:14) solution 10 μl of this solution of compound or vehicle solution was applied to the left ear of the mice. The right ear of each mouse was applied simultaneously with 10 μl of pyridine: water: acetone (4:2:14) solution. After 2 hrs of compound or vehicle application, 10 μl of croton oil solution was applied to the left ear of all animals. After 6 hr of croton oil treatment the animals were sacrificed; ears were excised and weighed separately.

[5] = tested on: ovalbumin-induced increase in intranasal pressure; assay: Ovalbumin-induced increase in intranasal pressure; format: in vivo, guinea pigs; conditions: intranasal instillation 24 hr and 2 hr prior to ovalbumin challenge; FIG. 2
Experimental: Animals sensitized with ovalbumin as described above were used for experiments determining intranasal pressure. Intranasal instillation of compound of formula I, fluticasone propionate or placebo was done 24 hr and 2 hr prior to challenge with ovalbumin. The nasopharynx was catheterized with a PE cannula, one end of which was attached to pressure transducer and other to the nebulizer. Ovalbumin (5%) was nebulized into the nasal cavity for 10 min. The changes in intranasal pressure were recorded for following 45 min and differential pressure (dP) was calculated.

[6] = tested on: cotton pellet granuloma; assay: Cotton pellet granuloma test; format: in vivo, SD rats; conditions: 100 mcg/pellet
Experimental: SD rats were used for assessing anti-inflammatory activity of test compound using cotton pellet granuloma method. Sterilized cotton pellets weighing 20 mg were prepared. Test compounds were dissolved in acetone so as to get the required quantity for each cotton pellet in 500 μl. Different pellets were impregnated with 500 μl of acetone to contain required quantity of test compounds and allowed to dry. Vehicle control pellets were impregnated with 500 μl acetone.
Rats were made into different groups. Two cotton pellets were surgically implanted into the scapular region of each rat. On sixth day of such implantation, pellets along with granuloma were taken out. Thymus gland was also separated from each animal and weighed. The pellets with granuloma were dried for 20 hrs at 60° C. and weighed. Mean weights of dry granuloma and thymus, body weight gain/100 g body weights were calculated.

[7] = tested on: skin atrophy and systemic side effects; assay: Skin atrophy and systemic side effects on topical application; format: in vivo, Male SD rats; conditions: dermal, daily 14 days
Text: Male SD rats were lightly anesthetized with isoflurane. Bilaterally paired sites were marked on the back, one on each side of the flank. One of the sites was applied with an appropriate dose of compound of the present invention and fluticasone propionate dissolved in the acetone, daily for a period of 14 days. Contralateral site served as solvent treated controls and received acetone. Body weights were monitored on 0-14 days. On day 15, twenty-four hours after the last applications, blood was collected from the tail vein to determine total and differential blood cell count. The animals were euthanized and full-thickness skin from shaved area was punched to get 15 mm diameter plugs. The subcutaneous fat and muscle was removed and the punched plug was weighed. Thymus weights of each animal were also determined as a marker of systemic corticosteroid activity

[8] = tested on: Sephadex-induced lung edema; assay: Sephadex-induced lung edema; format: in vivo, SD rats; conditions: Rattus norvegicus; i.t., 24 hrs and 2 hrs prior to Sephadex; read-out: ED50 Lung edema inhibition
Experimental: as §1

[9] = target: T1, Human Glucocorticoid receptor (Homo sapiens, UniProt P04150); assay: Human glucocorticoid receptor binding (in vitro), [3H]dexamethasone radioligand; conditions: at 0.1 μM
T1 construct: expressed in transfected cells; host or cells: human HeLa cells
T1 sequence (P04150 1-777): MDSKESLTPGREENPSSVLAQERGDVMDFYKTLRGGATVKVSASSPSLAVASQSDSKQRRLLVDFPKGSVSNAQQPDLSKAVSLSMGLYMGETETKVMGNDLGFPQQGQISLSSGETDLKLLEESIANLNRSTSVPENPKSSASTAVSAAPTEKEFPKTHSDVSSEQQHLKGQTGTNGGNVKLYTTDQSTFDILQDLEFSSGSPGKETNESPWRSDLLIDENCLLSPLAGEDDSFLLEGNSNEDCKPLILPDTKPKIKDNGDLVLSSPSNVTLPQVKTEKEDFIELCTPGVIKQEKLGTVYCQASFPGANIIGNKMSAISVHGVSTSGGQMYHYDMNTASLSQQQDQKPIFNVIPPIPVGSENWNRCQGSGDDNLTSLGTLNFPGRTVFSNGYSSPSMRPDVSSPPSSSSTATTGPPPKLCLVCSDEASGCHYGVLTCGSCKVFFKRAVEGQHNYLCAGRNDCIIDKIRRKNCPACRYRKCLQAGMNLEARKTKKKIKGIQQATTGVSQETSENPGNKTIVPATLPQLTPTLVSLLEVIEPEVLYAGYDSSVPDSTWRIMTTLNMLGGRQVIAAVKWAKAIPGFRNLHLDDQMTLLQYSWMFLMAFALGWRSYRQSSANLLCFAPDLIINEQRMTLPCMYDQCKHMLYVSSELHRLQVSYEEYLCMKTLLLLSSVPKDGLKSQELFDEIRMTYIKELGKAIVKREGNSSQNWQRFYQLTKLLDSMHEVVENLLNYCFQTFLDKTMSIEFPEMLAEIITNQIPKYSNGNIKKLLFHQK
Experimental: The activity of test compounds on glucocorticoid receptor was assessed using radioligand binding assays.
The % inhibition was evaluated using a single concentration of test compound and the corresponding radiolabeled ligand. Results are presented as the percent inhibition of specific binding. The values are average of duplicate determinations for each concentration.

Question: Which Glycogen content [1] does the source give for `CCCC1O[C@@H]2C[C@H]3[C@@H]4CCC5=CC(=O)C=C[C@]5(C)[C@H]4[C@@H](O)C[C@]3(C)[C@]2(C(=O)CO)O1` (stereo partly shown) [Budesonide] here?
Answer: The Glycogen content was 552.77 mg/100 g liver.

Question: And the “% Inhibition of thymus” value [2]?
Answer: The value was 65.02%.

Question: And the ED50 at 24 h [3]?
Answer: Its ED50 at 24 h is 0.68 mg/kg.

Question: Which results are given for `CCC(=O)O[C@]1(C(=O)SCF)[C@H](C)C[C@H]2[C@@H]3C[C@H](F)C4=CC(=O)C=C[C@]4(C)[C@@]3(F)[C@@H](O)C[C@@]21C` [Fluticasone propionate]?
Answer: Inhibition of ear edema (%) [4]: 81.09%; inhibition of intranasal pressure [5]: equivalent inhibition; Glycogen content [1]: 1514.65 mg/100 g liver; Mean % Inhibition of Granuloma A [6]: 66.04%; Thymus wt. (% Decrease) B [6]: 73.56%; % Inhibition of thymus [2]: 70.17%; % Body Weight Gain ([7]; 6 μg/site): 68.1%; % Inhibition Lymphocytes ([7]; 6 μg/site): 31.7%; % Inhibition Neutrophils ([7]; 6 μg/site): 25.8%; % Inhibition Skin weight ([7]; 6 μg/site): 25.3%; % Inhibition Thymus ([7]; 6 μg/site): 2.0%; % Inhibition Total leukocyt ([7]; 6 μg/site): 31.4%; % Body Weight Gain ([7]; 18 μg/site): 67.4%; % Inhibition Lymphocytes ([7]; 18 μg/site): 15.9%; % Inhibition Neutrophils ([7]; 18 μg/site): 24.5%; % Inhibition Skin weight ([7]; 18 μg/site): 20.8%; % Inhibition Thymus ([7]; 18 μg/site): 5.4%; % Inhibition Total leukocyt ([7]; 18 μg/site): 17.5%; % Body Weight Gain ([7]; 60 μg/site): 61.9%; % Inhibition Lymphocytes ([7]; 60 μg/site): 15.6%; % Inhibition Neutrophils ([7]; 60 μg/site): 14.5%; % Inhibition Skin weight ([7]; 60 μg/site): 27.9%; % Inhibition Thymus ([7]; 60 μg/site): 23.0%; % Inhibition Total leukocyt ([7]; 60 μg/site): 15.2%; % Body Weight Gain ([7]; 180 μg/site): 42.5%; % Inhibition Lymphocytes ([7]; 180 μg/site): 34.1%; % Inhibition Neutrophils ([7]; 180 μg/site): 24.6%; % Inhibition Skin weight ([7]; 180 μg/site): 30.0%; % Inhibition Thymus ([7]; 180 μg/site): 55.0%; % Inhibition Total leukocyt ([7]; 180 μg/site): 32.7%; ED50 at 24 h [3]: 0.36 mg/kg; ED50 [8]: 0.086 mg/kg

Question: With `C[C@@H]1CC2C3C[C@H](F)C4=CC(=O)C=C[C@]4(C)[C@@]3(F)[C@@H](O)C[C@]2(C)[C@@]1(OC(=O)c1ccco1)C(=O)SCC#CCO` (stereo partly drawn) [formula II, S-(4-Hydroxy-but-2-ynyl)6α,9α-difluoro-17α-(furan-2-yl)carbonyloxy-11β-hydroxy-16α-methyl-3-oxoandrosta-1,4-diene-17β-carbothioate] as the compound, how does the “potency in topical in vivo anti-inflammatory models such as croton oil ear edema” value ([4]; compared with compound of the present invention) read?
Answer: Its value is “significantly less potent”.

Question: With `C[C@@H]1C[C@H]2[C@@H]3CCC4=CC(=O)C=C[C@]4(C)[C@@]3(F)[C@@H](O)C[C@]2(C)[C@@]1(O)C(=O)CO` [Dexamethasone] as the compound, how does the “Inhibition of ear edema (%)” value [4] read?
Answer: The value was 50.05%.

Question: Which Glycogen content [1] does the source give for `C[C@@H]1C[C@H]2[C@@H]3CCC4=CC(=O)C=C[C@]4(C)[C@@]3(Cl)[C@@H](O)C[C@]2(C)[C@@]1(OC(=O)c1ccco1)C(=O)CCl` [Mometasone furoate] here?
Answer: Its Glycogen content is 1117.32 mg/100 g liver.

Question: And the “% Inhibition of thymus” value [2]?
Answer: The value was 43.51%.

Question: For `CC(C)C(=O)OCC(=O)[C@@]12O[C@H](C3CCCCC3)O[C@@H]1C[C@H]1[C@@H]3CCC4=CC(=O)C=C[C@]4(C)[C@H]3[C@@H](O)C[C@@]12C` [Ciclesonide], which Glycogen content [1] is on record?
Answer: The Glycogen content was 263.96 mg/100 g liver.

Question: And the “Mean % Inhibition of Granuloma A” value [6]?
Answer: The value was 63.38%.

Question: What about the “Thymus wt. (% Decrease) B” value [6] of the same compound?
Answer: Its value is 15.16%.

Question: What about the “% Inhibition of thymus” value [2] of the same compound?
Answer: Its value is 61.34%.

Question: And the ED50 at 24 h [3]?
Answer: Its ED50 at 24 h is 3.13 mg/kg.

Question: What about the ED50 [8] of the same compound?
Answer: Its ED50 is 0.388 mg/kg.

Question: Which inhibition at 0.1 µM [9] does the source give for `C[C@@H]1CC2C3C[C@H](F)C4=CC(=O)C=C[C@]4(C)[C@@]3(F)[C@@H](O)C[C@]2(C)[C@@]1(OC(=O)c1ccco1)C(=O)O` (stereo partly shown) [formula III] here?
Answer: The inhibition at 0.1 µM was 2%.
